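The compound was tested at five concentrations on cells cultured in 96-well plates, with a 48-hour exposure period. TGI: total growth inhibition.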
Experiments:
Assay in all cases: DTP human tumour cell line panel, 48 h
[1] = system: 786-0 renal
[2] = system: A498 renal
[3] = system: A549 NSCLC
[4] = system: CAKI-1 renal
[5] = system: CCRF-CEM leukemia
[6] = system: COLO 205 colon
[7] = system: DU-145 prostate
[8] = system: EKVX NSCLC
[9] = system: HCC-2998 colon
[10] = system: HCT-116 colon
[11] = system: HCT-15 colon
[12] = system: HL-60(TB) leukemia
[13] = system: HOP-62 NSCLC
[14] = system: HOP-92 NSCLC
[15] = system: HS 578T breast
[16] = system: HT29 colon
[17] = system: IGROV1 ovarian
[18] = system: K-562 leukemia
[19] = system: KM12 colon
[20] = system: LOX IMVI melanoma
[21] = system: M14 melanoma
[22] = system: MALME-3M melanoma
[23] = system: MCF7 breast
[24] = system: MDA-MB-231 breast
[25] = system: MDA-MB-435
[26] = system: MDA-N
[27] = system: MOLT-4 leukemia
[28] = system: NCI-H226 lung
[29] = system: NCI-H460 lung
[30] = system: NCI-H522 lung
[31] = system: NCI/ADR-RES ovarian
[32] = system: OVCAR-3 ovarian
[33] = system: OVCAR-5 ovarian
[34] = system: OVCAR-8 ovarian
[35] = system: PC-3 prostate
[36] = system: RXF 393 renal
[37] = system: SF-268 CNS
[38] = system: SF-295 CNS
[39] = system: SF-539 CNS
[40] = system: SK-MEL-2 melanoma
[41] = system: SK-MEL-28 melanoma
[42] = system: SK-MEL-5 melanoma
[43] = system: SK-OV-3 ovarian
[44] = system: SN12C renal
[45] = system: SNB-75 CNS
[46] = system: SR leukemia
[47] = system: SW-620 colon
[48] = system: T-47D breast
[49] = system: TK-10 renal
[50] = system: U251 CNS
[51] = system: UACC-257 melanoma
[52] = system: UACC-62 melanoma
[53] = system: ACHN renal
[54] = system: NCI-H23 lung
[55] = system: OVCAR-4 ovarian
[56] = system: RPMI-8226 leukemia
[57] = system: SNB-19 CNS
[58] = system: UO-31 renal

Measured: TGI

C[C@]12CCC(=O)O[C@H]1CCCCO2
71.1 µM: [14]
not listed: [53] | [54] | [55] | [56] | [57] | [58]
> 100 µM: all other assays above

NCC1Nc2ccccc2[C@@H](O)C1O (stereo partly drawn)
not listed: [2] | [30]
> 100 µM: all other assays above
